Data from ChEMBL document CHEMBL5523732, “Structure-Guided Design of Potent Coronavirus Inhibitors with a 2-Pyrrolidone Scaffold: Biochemical, Crystallographic, and Virological Studies” (J Med Chem, 2024).
pEC50, pIC50: −log10 of the molar value.

How the values were obtained:
[1] = Inhibition of MERS-CoV 3CLpro using SG-QXL520 as substrate preincubated with compound for 30 mins followed by susbtrate addition and measured after 30 mins by FRET assay; set-up: species or system Middle East respiratory syndrome-related coronavirus
[2] = target: Replicase polyprotein 1ab (Severe acute respiratory syndrome coronavirus 2, UniProt P0DTD1); assay: Inhibition of full length N-terminal his6-tagged SARS-CoV-2 3CL protease using FAM-SAVLQ as substrate preincubated with compound for 30 mins followed by substrate addition and measured after 30 mins by FRET assay
[3] = Cytotoxicity against cat CRFK cells incubated for 72 hrs by CytoTox 96 analysis; type: toxicity, cell-based, Felis catus
SARS-CoV-2 = assay: Antiviral activity against SARS CoV-2 Wuhan-Hu-1 infected in HEK293T cells incubated for 24 hrs; type: functional, organism-based; details: Severe acute respiratory syndrome coronavirus 2, Wuhan-Hu-1, HEK-293T

Structure (SMILES) | pIC50 [1] | pIC50 [2] | CC50 at 72 h [3] [nM] | pEC50 (SARS-CoV-2)
CC(C)C[C@H](NC(=O)OCC1CCN(Cc2cccc(C(F)(F)F)c2)C1=O)C(=O)N[C@@H](C[C@@H]1CCNC1=O)C(O)S(=O)(=O)O (stereo not given in full) | 7.22 | 6.06 | > 50000 | 
CC(C)C[C@H](NC(=O)OC[C@@H]1CCC(=O)N1Cc1ccco1)C(=O)N[C@@H](C[C@@H]1CCNC1=O)C(O)S(=O)(=O)O (stereo not given in full) | 7.30 | 6.60 | > 50000 | 
CC(C)C[C@H](NC(=O)OC[C@@H]1CCC(=O)N1Cc1ccccc1)C(=O)N[C@H](C=O)C[C@@H]1CCNC1=O | 6.89 | 6.37 | > 50000 | 
CC(C)C[C@H](NC(=O)OCC1CC(=O)N(CC2CC3CCC2C3)C1)C(=O)N[C@H](C=O)C[C@@H]1CCNC1=O (stereo not given in full) | 7.22 | 6.80 | > 50000 | 6.92
CC(C)C[C@H](NC(=O)OCC1CCN(Cc2ccco2)C1=O)C(=O)N[C@H](C=O)C[C@@H]1CCNC1=O (stereo not given in full) | 6.89 | 5.71 | > 50000 | 
CC(C)C[C@H](NC(=O)OC[C@@H]1CCC(=O)N1CCc1ccccc1)C(=O)N[C@@H](C[C@@H]1CCNC1=O)C(O)S(=O)(=O)O (stereo not given in full) | 6.80 | 6.26 | > 50000 | 
CC(C)C[C@H](NC(=O)OCC1CCN(Cc2ccccc2)C1=O)C(=O)N[C@H](C=O)C[C@@H]1CCNC1=O (stereo not given in full) | 7.22 | 6.10 | > 50000 | 
CC(C)C[C@H](NC(=O)OCC1CC(=O)N(CC2CCCCC2)C1)C(=O)N[C@@H](C[C@@H]1CCNC1=O)C(O)S(=O)(=O)O (stereo not given in full) | 7.30 | 6.43 | > 50000 | 6.82
CC(C)C[C@H](NC(=O)OC[C@@H]1CCC(=O)N1CCC1CCCCC1)C(=O)N[C@@H](C[C@@H]1CCNC1=O)C(O)S(=O)(=O)O (stereo not given in full) | 7.05 | 6.24 | > 50000 | 
CC(C)C[C@H](NC(=O)OCC1CC(=O)N(Cc2cccc(C(F)(F)F)c2)C1)C(=O)N[C@H](C=O)C[C@@H]1CCNC1=O (stereo not given in full) | 7.22 | 6.39 | > 50000 | 
CC(C)C[C@H](NC(=O)OCC1CC(=O)N(Cc2ccco2)C1)C(=O)N[C@@H](C[C@@H]1CCNC1=O)C(O)S(=O)(=O)O (stereo not given in full) | 7.10 | 6.25 | > 50000 | 
CC(C)C[C@H](NC(=O)OCC1CCN(C[C@H]2C[C@H]3C=C[C@@H]2C3)C1=O)C(=O)N[C@H](C=O)C[C@@H]1CCNC1=O (stereo not given in full) | 7.10 | 6.34 | > 50000 | 
CC(C)C[C@H](NC(=O)OCC1CC(=O)N(Cc2ccccc2)C1)C(=O)N[C@H](C=O)C[C@@H]1CCNC1=O (stereo not given in full) | 7.10 | 6.14 | > 50000 | 
CC(C)C[C@H](NC(=O)OCC1CCN(Cc2cccc(C(F)(F)F)c2)C1=O)C(=O)N[C@H](C=O)C[C@@H]1CCNC1=O (stereo not given in full) | 7.15 | 6.07 | > 50000 | 
CC(C)C[C@H](NC(=O)OCC1CCN(C[C@H]2C[C@H]3C=C[C@@H]2C3)C1=O)C(=O)N[C@@H](C[C@@H]1CCNC1=O)C(O)S(=O)(=O)O (stereo not given in full) | 6.82 | 6.26 | > 50000 | 
CC(C)C[C@H](NC(=O)OCC1CCN(CC2CCCCC2)C1=O)C(=O)N[C@@H](C[C@@H]1CCNC1=O)C(O)S(=O)(=O)O (stereo not given in full) | 6.77 | 6.66 | > 50000 | 7.70
CC(C)C[C@H](NC(=O)OC[C@@H]1CCC(=O)N1C[C@H]1C[C@@H]2CC[C@H]1C2)C(=O)N[C@H](C=O)C[C@@H]1CCNC1=O | 7.15 | 6.30 | > 50000 | 
CC(C)C[C@H](NC(=O)OCC1CC(=O)N(CC2CCCCC2)C1)C(=O)N[C@H](C=O)C[C@@H]1CCNC1=O (stereo not given in full) | 7.30 | 6.51 | > 50000 | 6.89
CC(C)C[C@H](NC(=O)OC[C@H]1CCC(=O)N1CC1CCCCC1)C(=O)N[C@H](C=O)C[C@@H]1CCNC1=O | 7.15 | 6.30 | > 50000 | 

Structure (SMILES) | pIC50 [1] | pIC50 [2] | CC50 at 72 h [3] [nM] | pEC50 (SARS-CoV-2)
CC(C)C[C@H](NC(=O)OCC1CC(=O)N(Cc2ccccc2)C1)C(=O)N[C@@H](C[C@@H]1CCNC1=O)C(O)S(=O)(=O)O (stereo not given in full) | 7.30 | 6.19 | > 50000 | 
CC(C)C[C@H](NC(=O)OCC1CC(=O)N(CC2CC3CCC2C3)C1)C(=O)N[C@@H](C[C@@H]1CCNC1=O)C(O)S(=O)(=O)O (stereo not given in full) | 7.15 | 6.77 | > 50000 | 7.10
CC(C)C[C@H](NC(=O)OC[C@@H]1CCC(=O)N1CC1CCC(F)(F)CC1)C(=O)N[C@@H](C[C@@H]1CCNC1=O)C(O)S(=O)(=O)O (stereo not given in full) | 7.22 | 6.27 | > 50000 | 
CC(C)C[C@H](NC(=O)OC[C@@H]1CCC(=O)N1C[C@H]1C[C@@H]2C=C[C@H]1C2)C(=O)N[C@H](C=O)C[C@@H]1CCNC1=O | 7.22 | 6.38 | > 50000 | 
CC(C)C[C@H](NC(=O)OC[C@@H]1CCC(=O)N1Cc1ccccc1)C(=O)N[C@@H](C[C@@H]1CCNC1=O)C(O)S(=O)(=O)O (stereo not given in full) | 7.05 | 6.31 | > 50000 | 
CC(C)C[C@H](NC(=O)OC[C@@H]1CCC(=O)N1C[C@H]1C[C@@H]2CC[C@H]1C2)C(=O)N[C@@H](C[C@@H]1CCNC1=O)C(O)S(=O)(=O)O (stereo not given in full) | 7.22 | 6.39 | > 50000 | 
CC(C)C[C@H](NC(=O)OCC1CC(=O)N(Cc2cccc(C(F)(F)F)c2)C1)C(=O)N[C@@H](C[C@@H]1CCNC1=O)C(O)S(=O)(=O)O (stereo not given in full) | 7.15 | 6.46 | > 50000 | 
CC(C)C[C@H](NC(=O)OC[C@@H]1CCC(=O)N1CC1CCC(F)(F)CC1)C(=O)N[C@H](C=O)C[C@@H]1CCNC1=O | 7.22 | 6.26 | > 50000 | 
CC(C)C[C@H](NC(=O)OC[C@@H]1CCC(=O)N1C[C@H]1C[C@@H]2C=C[C@H]1C2)C(=O)N[C@@H](C[C@@H]1CCNC1=O)C(O)S(=O)(=O)O (stereo not given in full) | 7.22 | 6.35 | > 50000 | 
CC(C)C[C@H](NC(=O)OCC1CCN(CC2CCCCC2)C1=O)C(=O)N[C@H](C=O)C[C@@H]1CCNC1=O (stereo not given in full) | 6.51 | 6.64 | > 50000 | 7.70
CC(C)C[C@H](NC(=O)OC[C@@H]1CCC(=O)N1CCc1ccccc1)C(=O)N[C@H](C=O)C[C@@H]1CCNC1=O | 6.85 | 6.14 | > 50000 | 
CC(C)C[C@H](NC(=O)OCC1CC(=O)N(Cc2ccco2)C1)C(=O)N[C@H](C=O)C[C@@H]1CCNC1=O (stereo not given in full) | 7.15 | 6.26 | > 50000 | 
CC(C)C[C@H](NC(=O)OC[C@@H]1CCC(=O)N1CCC1CCCCC1)C(=O)N[C@H](C=O)C[C@@H]1CCNC1=O | 7.05 | 6.30 | > 50000 | 
CC(C)C[C@H](NC(=O)OCC1CCN(Cc2ccccc2)C1=O)C(=O)N[C@@H](C[C@@H]1CCNC1=O)C(O)S(=O)(=O)O (stereo not given in full) | 7.22 | 6.09 | > 50000 | 
CC(C)C[C@H](NC(=O)OCC1CCN(Cc2ccco2)C1=O)C(=O)N[C@@H](C[C@@H]1CCNC1=O)C(O)S(=O)(=O)O (stereo not given in full) | 6.82 | 5.70 | > 50000 | 
CC(C)C[C@H](NC(=O)OCC1CCN(C[C@H]2C[C@H]3CC[C@@H]2C3)C1=O)C(=O)N[C@@H](C[C@@H]1CCNC1=O)C(O)S(=O)(=O)O (stereo not given in full) | 6.89 | 6.29 | > 50000 | 
CC(C)C[C@H](NC(=O)OCC1CCN(C[C@H]2C[C@H]3CC[C@@H]2C3)C1=O)C(=O)N[C@H](C=O)C[C@@H]1CCNC1=O (stereo not given in full) | 7.05 | 6.37 | > 50000 | 
CC(C)C[C@H](NC(=O)OC[C@@H]1CCC(=O)N1Cc1ccco1)C(=O)N[C@H](C=O)C[C@@H]1CCNC1=O | 7.22 | 6.48 | > 50000 | 
CC(C)C[C@H](NC(=O)OC[C@H]1CCC(=O)N1CC1CCCCC1)C(=O)N[C@@H](C[C@@H]1CCNC1=O)C(O)S(=O)(=O)O (stereo not given in full) | 7.10 | 6.29 | > 50000 | 
